Calls of active or inactive are those of the source. The calls are words filed in the database; no cut-off is given here.
Molecular target: T1, Quinolone resistance protein NorA (Staphylococcus aureus) (UniProt P0A0J7)
T1 sequence (whole entry): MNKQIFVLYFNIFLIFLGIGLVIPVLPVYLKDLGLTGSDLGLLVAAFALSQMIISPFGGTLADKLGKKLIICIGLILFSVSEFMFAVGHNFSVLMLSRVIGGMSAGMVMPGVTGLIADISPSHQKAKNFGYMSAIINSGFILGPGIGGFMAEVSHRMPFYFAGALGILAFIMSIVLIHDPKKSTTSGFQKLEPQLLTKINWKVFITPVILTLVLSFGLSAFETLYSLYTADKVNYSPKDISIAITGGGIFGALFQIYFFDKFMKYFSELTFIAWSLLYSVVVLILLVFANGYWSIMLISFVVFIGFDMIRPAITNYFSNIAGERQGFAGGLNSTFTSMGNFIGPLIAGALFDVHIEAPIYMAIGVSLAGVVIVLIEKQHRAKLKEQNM
Test: Inhibition of NorA efflux pump overexpressed in Staphylococcus aureus 1199B assessed as increase in EtBr accumulation at 50 ug/ml measured after 30 mins by fluorescence analysis
Details: not given

Row | Compound | inhibition
1 | CCC(/C=C/C(=O)N1CCC[C@@H]1C(=O)OC)=C\c1ccc2c(c1)OCO2 | Active
2 | CCCCC(=O)NC1(CC(=O)NNc2ccccc2)CCN(C(=O)/C=C/C(=C/c2ccc3c(c2)OCO3)CC)CC1 | Active

Molecular target: T1, Quinolone resistance protein NorA (Staphylococcus aureus)
Test: Inhibition of NorA efflux pump overexpressed in Staphylococcus aureus 1199B assessed as concentration required for four-fold reduction in ethidium bromide MIC measured at every 3 mins interval for 30 mins by fluorescence analysis
Details: not given

Row | Compound | MEC [µg/mL]
3 | CCC(/C=C/C(=O)N1CCC[C@@H]1C(=O)OC)=C\c1ccc2c(c1)OCO2 | 3.12
4 | CCC(/C=C/C(=O)N[C@H](C(=O)OC)C(C)(C)C)=C\c1ccc2c(c1)OCO2 | 25
5 | COC(=O)[C@@H](NC(=O)/C=C/C=C/c1ccc2c(c1)OCO2)C(C)(C)C | 50
6 | COC(=O)CC1(CNC(=O)/C=C/C=C/c2ccc3c(c2)OCO3)CCCCC1 | 50
7 | CCCCC(=O)NC1(CC(=O)NNc2ccccc2)CCN(C(=O)/C=C/C(=C/c2ccc3c(c2)OCO3)CC)CC1 | 3.12
8 | CCC(/C=C/C(=O)N[C@@H](Cc1ccccc1)C(=O)OC)=C\c1ccc2c(c1)OCO2 | 6.25
9 | CCC(/C=C/C(=O)N1CCCCC1)=C\c1ccc2c(c1)OCO2 | 12.5

Molecular target: T1, Quinolone resistance protein NorA (Staphylococcus aureus)
Test: Inhibition of NorA efflux pump in Staphylococcus aureus 1199 assessed as concentration required for four-fold reduction in ethidium bromide MIC measured at every 3 mins interval for 30 mins by fluorescence analysis
Details: not given

Row | Compound | MEC [µg/mL]
10 | CCC(/C=C/C(=O)N1CCC[C@@H]1C(=O)OC)=C\c1ccc2c(c1)OCO2 | 25
11 | O=C(/C=C/C=C/c1ccc2c(c1)OCO2)N1CCCCC1 [PIPERINE] | > 50
12 | CCC(/C=C/C(=O)N[C@H](C(=O)OC)C(C)(C)C)=C\c1ccc2c(c1)OCO2 | > 50
13 | COC(=O)[C@@H](NC(=O)/C=C/C=C/c1ccc2c(c1)OCO2)C(C)(C)C | 50
14 | COC(=O)CC1(CNC(=O)/C=C/C=C/c2ccc3c(c2)OCO3)CCCCC1 | 25
15 | CCCCC(=O)NC1(CC(=O)NNc2ccccc2)CCN(C(=O)/C=C/C(=C/c2ccc3c(c2)OCO3)CC)CC1 | 12.5
16 | CCC(/C=C/C(=O)N[C@@H](Cc1ccccc1)C(=O)OC)=C\c1ccc2c(c1)OCO2 | > 50
17 | CCC(/C=C/C(=O)N1CCCCC1)=C\c1ccc2c(c1)OCO2 | 25

Molecular target: T1, Quinolone resistance protein NorA (Staphylococcus aureus)
Test: Inhibition of NorA efflux pump overexpressed in Staphylococcus aureus 1199B assessed as fold reduction in ethidium bromide MIC at 12.5 ug/ml measured at every 3 mins interval for 30 mins by fluorescence analysis
Details: not given

Row | Compound | fold change (FC)
18 | CCC(/C=C/C(=O)N1CCC[C@@H]1C(=O)OC)=C\c1ccc2c(c1)OCO2 | 4
19 | O=C(/C=C/C=C/c1ccc2c(c1)OCO2)N1CCCCC1 [PIPERINE] | 2
20 | CCC(/C=C/C(=O)N[C@H](C(=O)OC)C(C)(C)C)=C\c1ccc2c(c1)OCO2 | 2
21 | COC(=O)[C@@H](NC(=O)/C=C/C=C/c1ccc2c(c1)OCO2)C(C)(C)C | 2
22 | COC(=O)CC1(CNC(=O)/C=C/C=C/c2ccc3c(c2)OCO3)CCCCC1 | 2
23 | CCCCC(=O)NC1(CC(=O)NNc2ccccc2)CCN(C(=O)/C=C/C(=C/c2ccc3c(c2)OCO3)CC)CC1 | 8
24 | CCC(/C=C/C(=O)N[C@@H](Cc1ccccc1)C(=O)OC)=C\c1ccc2c(c1)OCO2 | 4
25 | CCC(/C=C/C(=O)N1CCCCC1)=C\c1ccc2c(c1)OCO2 | 4

Molecular target: T1, Quinolone resistance protein NorA (Staphylococcus aureus)
Test: Potency index, ratio of SK-20 MEC to compound MEC for Staphylococcus aureus 1199B overexpressing NorA efflux pump assessed as concentration required for four-fold reduction in ciprofloxacin MIC
Details: not given

Row | Compound | Ratio
26 | CCC(/C=C/C(=O)N1CCC[C@@H]1C(=O)OC)=C\c1ccc2c(c1)OCO2 | 4

Molecular target: T1, Quinolone resistance protein NorA (Staphylococcus aureus)
Test: Inhibition of NorA efflux pump overexpressed in Staphylococcus aureus 1199B assessed as fold reduction in ciprofloxacin MIC at 12.5 ug/ml measured after 24 hrs by broth checkerboard method
Details: not given

Row | Compound | fold change (FC)
27 | CCC(/C=C/C(=O)N1CCC[C@@H]1C(=O)OC)=C\c1ccc2c(c1)OCO2 | 16
28 | COC(=O)CC1(NC(=O)/C=C/C=C/c2ccc3c(c2)OCO3)CCCCC1 | 0
29 | CCC1CCC(CC(=O)OC)(NC(=O)/C=C/C=C/c2ccc3c(c2)OCO3)CC1 (stereo not given) | 0
30 | CCC(/C=C/C(=O)N1CCC(CC(=O)NC(C)(C)C(=O)OC)(NC(C)=O)CC1)=C\c1ccc2c(c1)OCO2 | 2
31 | O=C(/C=C/C=C/c1ccc2c(c1)OCO2)N1CCCCC1 [PIPERINE] | 0
32 | CCC(/C=C/C(=O)N[C@H](C(=O)OC)C(C)(C)C)=C\c1ccc2c(c1)OCO2 | 4
33 | COC(=O)[C@@H](NC(=O)/C=C/C=C/c1ccc2c(c1)OCO2)C(C)(C)C | 4
34 | COC(=O)CC1(CNC(=O)/C=C/C=C/c2ccc3c(c2)OCO3)CCCCC1 | 4
35 | CCCCC(=O)NC1(CC(=O)NNc2ccccc2)CCN(C(=O)/C=C/C(=C/c2ccc3c(c2)OCO3)CC)CC1 | 4
36 | CCC(/C=C/C(=O)N[C@@H](Cc1ccccc1)C(=O)OC)=C\c1ccc2c(c1)OCO2 | 2
37 | CCC(/C=C/C(=O)N1CCCCC1)=C\c1ccc2c(c1)OCO2 | 4

Molecular target: T1, Quinolone resistance protein NorA (Staphylococcus aureus)
Test: Inhibition of NorA efflux pump in Staphylococcus aureus 1199 assessed as fold reduction in ethidium bromide MIC at […] measured at every 3 mins interval for 30 mins by fluorescence analysis
Details: 12.5 ug/ml

Row | Compound | fold change (FC)
38 | CCC(/C=C/C(=O)N1CCC[C@@H]1C(=O)OC)=C\c1ccc2c(c1)OCO2 | 2
39 | O=C(/C=C/C=C/c1ccc2c(c1)OCO2)N1CCCCC1 [PIPERINE] | 0
40 | CCC(/C=C/C(=O)N[C@H](C(=O)OC)C(C)(C)C)=C\c1ccc2c(c1)OCO2 | 2
41 | COC(=O)[C@@H](NC(=O)/C=C/C=C/c1ccc2c(c1)OCO2)C(C)(C)C | 0
42 | COC(=O)CC1(CNC(=O)/C=C/C=C/c2ccc3c(c2)OCO3)CCCCC1 | 0
43 | CCCCC(=O)NC1(CC(=O)NNc2ccccc2)CCN(C(=O)/C=C/C(=C/c2ccc3c(c2)OCO3)CC)CC1 | 4
44 | CCC(/C=C/C(=O)N[C@@H](Cc1ccccc1)C(=O)OC)=C\c1ccc2c(c1)OCO2 | 2
45 | CCC(/C=C/C(=O)N1CCCCC1)=C\c1ccc2c(c1)OCO2 | 0

Molecular target: T1, Quinolone resistance protein NorA (Staphylococcus aureus)
Test: Inhibition of NorA efflux pump overexpressed in Staphylococcus aureus 1199B assessed as reduction in EtBr efflux measured over 30 mins by fluorescence analysis
Details: not given

Row | Compound | inhibition
46 | CCC(/C=C/C(=O)N1CCC[C@@H]1C(=O)OC)=C\c1ccc2c(c1)OCO2 | Dose-dependent effect
47 | CCCCC(=O)NC1(CC(=O)NNc2ccccc2)CCN(C(=O)/C=C/C(=C/c2ccc3c(c2)OCO3)CC)CC1 | Dose-dependent effect

Test system: Staphylococcus aureus
Test: Antibacterial activity against wild-type Staphylococcus aureus 1199 expressing NorA efflux pump measured at every 3 mins interval for 30 mins by fluorescence analysis
Type: functional
Details: not given

Row | Compound | MIC [µg/mL]
48 | CCC(/C=C/C(=O)N1CCC[C@@H]1C(=O)OC)=C\c1ccc2c(c1)OCO2 | > 50
49 | O=C(/C=C/C=C/c1ccc2c(c1)OCO2)N1CCCCC1 [PIPERINE] | > 50
50 | CCC(/C=C/C(=O)N[C@H](C(=O)OC)C(C)(C)C)=C\c1ccc2c(c1)OCO2 | > 50
51 | COC(=O)[C@@H](NC(=O)/C=C/C=C/c1ccc2c(c1)OCO2)C(C)(C)C | > 50
52 | COC(=O)CC1(CNC(=O)/C=C/C=C/c2ccc3c(c2)OCO3)CCCCC1 | > 50
53 | CCCCC(=O)NC1(CC(=O)NNc2ccccc2)CCN(C(=O)/C=C/C(=C/c2ccc3c(c2)OCO3)CC)CC1 | > 50
54 | CCC(/C=C/C(=O)N[C@@H](Cc1ccccc1)C(=O)OC)=C\c1ccc2c(c1)OCO2 | > 50
55 | CCC(/C=C/C(=O)N1CCCCC1)=C\c1ccc2c(c1)OCO2 | > 50

Molecular target: T1, Quinolone resistance protein NorA (Staphylococcus aureus)
Test: Inhibition of NorA efflux pump overexpressed in Staphylococcus aureus 1199B assessed as concentration required for four-fold reduction in ciprofloxacin MIC measured after 24 hrs by broth checkerboard method relative to control
Details: not given

Row | Compound | MEC [µg/mL]
56 | CCC(/C=C/C(=O)N1CCC[C@@H]1C(=O)OC)=C\c1ccc2c(c1)OCO2 | 3.12
57 | COC(=O)CC1(NC(=O)/C=C/C=C/c2ccc3c(c2)OCO3)CCCCC1 | > 50
58 | CCC1CCC(CC(=O)OC)(NC(=O)/C=C/C=C/c2ccc3c(c2)OCO3)CC1 (stereo not given) | 50
59 | CCC(/C=C/C(=O)N1CCC(CC(=O)NC(C)(C)C(=O)OC)(NC(C)=O)CC1)=C\c1ccc2c(c1)OCO2 | 25
60 | O=C(/C=C/C=C/c1ccc2c(c1)OCO2)N1CCCCC1 [PIPERINE] | > 50
61 | CCC(/C=C/C(=O)N[C@H](C(=O)OC)C(C)(C)C)=C\c1ccc2c(c1)OCO2 | 12.5
62 | COC(=O)[C@@H](NC(=O)/C=C/C=C/c1ccc2c(c1)OCO2)C(C)(C)C | 12.5
63 | COC(=O)CC1(CNC(=O)/C=C/C=C/c2ccc3c(c2)OCO3)CCCCC1 | 12.5
64 | CCCCC(=O)NC1(CC(=O)NNc2ccccc2)CCN(C(=O)/C=C/C(=C/c2ccc3c(c2)OCO3)CC)CC1 | 6.25
65 | CCC(/C=C/C(=O)N[C@@H](Cc1ccccc1)C(=O)OC)=C\c1ccc2c(c1)OCO2 | 25
66 | CCC(/C=C/C(=O)N1CCCCC1)=C\c1ccc2c(c1)OCO2 | 12.5

Test system: Staphylococcus aureus
Test: Antibacterial activity against Staphylococcus aureus 1199B overexpressing NorA efflux pump measured after 24 hrs by broth checkerboard method
Type: functional
Details: not given

Row | Compound | MIC [µg/mL]
67 | CCC(/C=C/C(=O)N1CCC[C@@H]1C(=O)OC)=C\c1ccc2c(c1)OCO2 | > 50
68 | COC(=O)CC1(NC(=O)/C=C/C=C/c2ccc3c(c2)OCO3)CCCCC1 | > 50
69 | CCC1CCC(CC(=O)OC)(NC(=O)/C=C/C=C/c2ccc3c(c2)OCO3)CC1 (stereo not given) | > 50
70 | CCC(/C=C/C(=O)N1CCC(CC(=O)NC(C)(C)C(=O)OC)(NC(C)=O)CC1)=C\c1ccc2c(c1)OCO2 | > 50
71 | O=C(/C=C/C=C/c1ccc2c(c1)OCO2)N1CCCCC1 [PIPERINE] | > 50
72 | CCC(/C=C/C(=O)N[C@H](C(=O)OC)C(C)(C)C)=C\c1ccc2c(c1)OCO2 | > 50
73 | COC(=O)[C@@H](NC(=O)/C=C/C=C/c1ccc2c(c1)OCO2)C(C)(C)C | > 50
74 | COC(=O)CC1(CNC(=O)/C=C/C=C/c2ccc3c(c2)OCO3)CCCCC1 | > 50
75 | CCCCC(=O)NC1(CC(=O)NNc2ccccc2)CCN(C(=O)/C=C/C(=C/c2ccc3c(c2)OCO3)CC)CC1 | > 50
76 | CCC(/C=C/C(=O)N[C@@H](Cc1ccccc1)C(=O)OC)=C\c1ccc2c(c1)OCO2 | > 50
77 | CCC(/C=C/C(=O)N1CCCCC1)=C\c1ccc2c(c1)OCO2 | > 50

Test system: Staphylococcus aureus
Test: Antibacterial activity against Staphylococcus aureus 1199B overexpressing NorA efflux pump measured at every 3 mins interval for 30 mins by fluorescence analysis
Type: functional
Details: not given

Row | Compound | MIC [µg/mL]
78 | CCC(/C=C/C(=O)N1CCC[C@@H]1C(=O)OC)=C\c1ccc2c(c1)OCO2 | > 50
79 | O=C(/C=C/C=C/c1ccc2c(c1)OCO2)N1CCCCC1 [PIPERINE] | > 50
80 | CCC(/C=C/C(=O)N[C@H](C(=O)OC)C(C)(C)C)=C\c1ccc2c(c1)OCO2 | > 50
81 | COC(=O)[C@@H](NC(=O)/C=C/C=C/c1ccc2c(c1)OCO2)C(C)(C)C | > 50
82 | COC(=O)CC1(CNC(=O)/C=C/C=C/c2ccc3c(c2)OCO3)CCCCC1 | > 50
83 | CCCCC(=O)NC1(CC(=O)NNc2ccccc2)CCN(C(=O)/C=C/C(=C/c2ccc3c(c2)OCO3)CC)CC1 | > 50
84 | CCC(/C=C/C(=O)N[C@@H](Cc1ccccc1)C(=O)OC)=C\c1ccc2c(c1)OCO2 | > 50
85 | CCC(/C=C/C(=O)N1CCCCC1)=C\c1ccc2c(c1)OCO2 | > 50
